According to patent publication US7794957B2, “Eukaryotic genes involved in adult lifespan regulation” (priority 2001, dated 2010):
“Also recorded” adds a separate entry of the source.

System: C. elegans
Test: Antimycin A treatment, adult lifespan analysis
Format: in vivo
Protocol: During a systematic screen of a C. elegans Chromosome I RNAi library it was discovered that animals grown on bacteria expressing atp-3 double-stranded RNA lived much longer than normal (Fraser et al., Nature 408:325 (2000)). Lifespan analysis was conducted at 25° C. as described previously (Kenyon et al., Nature 366:461 (1993)). The pre-fertile period of adulthood was used as t=0 for lifespan analysis. Strains were grown at 20° C. for at least two generations before use in lifespan analysis. Statview 5.0.1 (SAS) software was used for statistical analysis and to determine means and percentiles. In all cases, p values were calculated using the logrank (Mantel-Cox) method.
OP-50 bacteria were spread onto NG plates and allowed to grow for two days at room temperature. 50 μl of 0.01 M Antimycin A (Sigma) dissolved in 100% ethanol was dropped onto bacterial lawn and allowed to dry overnight in a fume hood at room temperature. […] Animals were transferred to new Antimycin A plates every 4 days. Control worms (ethanol only) were handled in the same manner) (Table 1).

[1] = fer-15(b26), fem-1(hc17) + 0.1 μM Antimycin A, 25° C.

## Antimycin A
C. elegans, from hatching through adulthood or regimen not stated, listed as antimycin
  effect on lifespan (words): substantially increased lifespan; also recorded: increases lifespan
C. elegans, from hatching through adulthood or regimen not stated, listed as antimycin A
  effect on lifespan (words): increased lifespan
Administration to adult worms
  effect on lifespan (words): increased lifespan
Animals grown in the presence of 0.1 micromolar antimycin in ethanol
  mean lifespan: 21 days
[1]
  75th percentile adult lifespan: 25 days
  Mean ± s.e.m. adult lifespan: 20.4 ± 0.7 days
